# Values of other authors, collected in patent US7160060B1, “System and method of remediation of contaminants” (priority 2004, dated 2007).
# Conditions: select chlorinated organics (Table 1)
row,SMILES,SOLUBILITY IN WATER at 25° C.
1,ClC(Cl)=C(Cl)Cl [Perchloroethylene],150 mg/L
2,ClC=C(Cl)Cl [Trichloroethylene],"1,280 mg/L"
3,C=CCl [Vinyl Chloride],"8,800 mg/L"

# Same assay, conditions: select polycyclic aromatic hydrocarbons (Table 3)
row,SMILES,SOLUBILITY IN WATER at 25° C. [mg/L]
1,c1ccc2cc3ccccc3cc2c1 [Anthracene],0.075
2,c1ccc2c(c1)cc1ccc3cccc4ccc2c1c34 [Benzo(a)pyrene],0.0016
3,"c1cc2ccc3ccc4ccc5cccc6c(c1)c2c3c4c56 [Benzo(g,h,i)perylene]",0.00026
4,c1ccc2c(c1)ccc1c3ccccc3ccc21 [Chrysene],0.00189
5,"c1ccc2c(c1)ccc1cc3c(ccc4ccccc43)cc12 [Dibenz(a,h)anthracene]",0.0006
6,c1ccc2c(c1)ccc1ccccc12 [Phenanthrene],1.18

# Same assay, conditions: select volatile organic chemicals (BTEX) (Table 2)
row,SMILES,SOLUBILITY IN WATER at 25° C. [mg/L]
1,"Cc1ccc(C)cc1 [p-xylene isomer, p-xylene]",198
